Article PMC11984388, “A brain-accessible peptide modulates stroke inflammatory response and neurotoxicity by targeting BDNF-receptor TrkB-T1 specific interactome” (Theranostics, 2025)
Residues, ends and D or L forms follow the SMILES beside them. *: point of attachment. Biotin = O=C1N[C@H]2[C@H](CS[C@H]2CCCCC(=O)*)N1

System: neurons of primary cortical cultures
Test: Neuronal viability (MTT) under NMDA excitotoxicity
Assay type: cell-based, rat
Description: Cultures were prepared from cerebral cortex of 18-day-old Wistar rat embryos, both genders indistinctly included. Unless otherwise indicated, glial growth was inhibited after 7 days in vitro (DIVs), experimental treatments taking place after 12 DIVs. These cultures present a high percentage of neurons, combined with glial cells, mostly astrocytes. To induce excitotoxicity, cultures were incubated with NMDA (100 µM) and its co-agonist glycine (10 µM), herein denoted simply as NMDA, which induce a strong excitotoxic response in mature neurons but have no effect on astrocyte viability,[47]. When indicated, cultures were preincubated for 30 min with indicated concentrations of Tat-derived CPPs before NMDA treatment, peptides being kept in the medium along treatment. Total cell or neuronal viability assessment was established by the thiazolyl blue formazan (MTT) reduction assay. Further details are provided as Supplementary material. […]
skull for 10 min. Br ain injury encompas se s damage to vas cular endothelium, platelet activation, and subs equent microvascula r thrombotic occlus ion of the irradiate d region. The ar eas underneath this ste reotaxic position that result irradiate d ar e the prima ry motor cortex and the prima ry soma tos ens ory cortex (hindlimb and forelimb). Once completed surgery, the incision was sutured, and mice were allowed to recover.
For neuroprote ction experiments, a single dose (3 nmol/g) of peptides TMyc or TT1Ct (> 95% purity; GenScript), solubilized as 2.5 mM solutions in 0.9% NaC l, we retro-orbita lly injected 1 h af ter damage initiation. In order to improve their plas ma sta bility, thes e peptides ar e N- and C-ter modifie d by, respec tive ly, ace tyl and amide groups. Mi c e were not subje cted to other procedures before isc hemia and were naive to drug or peptide treatment. Animals were randomly allocated to the experimental groups and the resea rc hers doing the experiments were blind respec t to treatment. There was not a previous es tima tion of sa mple si z e and experiments were independently car r ied out as indicated. Twenty-four hours af ter damage induction, animals completed the beam walking test and were subs equently sa cri f i ced by cervical disloca tion to meas ure the infarc t volume, as indicated below. Be fore that, brains were se ctioned into se ri al 1-mm-thick coronal sl i ce s using a mouse brain matrix (Stoe lting, Wood Dale, IL, USA), and se ctions were completely sta ine d with 2% TTC at room temperature to visua liz e the cortical infarc ts . For immunohistochemis try, animals were deeply anes thetized 5 or 24 h af ter brain damage and intra cardially perfus ed with cold PBS and 4% paraformalde hyde in PBS as indicated below.
Primary cultures of rat cor tic al neurons to study in vitro excitotoxicity The diss ected cerebral cortices of Wis ta r rat embryos (E18), both genders included, were mechanic ally diss ociated in culture medium (Minimum Esse ntia l Me dium, ME M, Life Technologies) follow ed by se eding of the cell sus pens ion at a dens ity of 1.1x10^6 cells /ml, prepared in the sa m e medium supple me nted with 22.2 mM glucos e, 0.1 mM glutamax, 5% foetal bovine se rum (FBS), 5% donor horse se rum (HS), 100 U/ml penicillin and 100 µg/ml streptomycin. Be fore se eding, the plates were treated overnight at 37°C with 100 µg/ml poly-L-lysine and 4 µg/ml laminin. The cells were incubated at 37°C in an atmosphe re of 5% CO2 and 95% humidity. Generally, glial growth was inhibited af ter 7 days in vitro (DIV s) by adding 10 µM 5 cytos ine β-D-arabinofuranos ide (AraC) and experimental treatments took place af ter 12 DIVs. Excitotoxicity was induced by incubation with NM DA (100 µM) and glycine (10 µM) for the indicated times. As indicated, cultures were preincubated with Tat-derived CP P s before […]
Mi c e had to walk through a narrow beam (1 m × 1 cm × 1 cm) placed 50 cm above the tabletop, going from an aversive stimulus (60-W light bulb) to a black goal box with nes ting material. […]

[1] = peptide 25 µM preincubated 30 min, NMDA 100 µM + glycine 10 µM for 2 h, relative to untreated cells (100%), mean ± SEM, n = 8 (Fig 1E)
[2] = peptide 25 µM preincubated 30 min, NMDA 100 µM + glycine 10 µM for 4 h, relative to untreated cells (100%), mean ± SEM, n = 8 (Fig 1E)

| Molecule | Relative neuronal viability (%) [1] | Relative neuronal viability (%) [2] | Relative neuronal viability (%) (2 h, 15 µM) | Relative neuronal viability (%) (4 h, 15 µM) | Neuronal viability (CPPs 0: peptide and NMDA (100 µM) at the same time, viability after 4 h of excitotoxicity, relative to untreated cells (100%), mean, n = 4-8 (Fig S4)) | Neuronal viability (CPPs 30: peptide added 30' post-NMDA (100 µM), viability after 4 h of excitotoxicity, relative to untreated cells (100%), mean, n = 4-8 (Fig S4)) | Neuronal viability (CPPs 60: peptide added 60' post-NMDA (100 µM), viability after 4 h of excitotoxicity, relative to untreated cells (100%), mean, n = 4-8 (Fig S4)) | Neuronal viability (dose-response experiment (Fig 3B): peptide 15 µM preincubated 30 min, NMDA 2 h, mean ± SEM, n = 8) |
| --- | --- | --- | --- | --- | --- | --- | --- | --- |
| CC[C@H](C)[C@H](NC(=O)[C@H](CC(C)C)NC(=O)[C@H](CCCCN)NC(=O)[C@H](CCC(N)=O)NC(=O)[C@H](CCC(=O)O)NC(=O)[C@H](CCC(=O)O)NC(=O)[C@H](C)NC(=O)[C@H](CCCNC(=N)N)NC(=O)[C@H](CCCNC(=N)N)NC(=O)[C@H](CCCNC(=N)N)NC(=O)[C@H](CCC(N)=O)NC(=O)[C@H](CCCNC(=N)N)NC(=O)[C@H](CCCNC(=N)N)NC(=O)[C@H](CCCCN)NC(=O)[C@H](CCCCN)NC(=O)[C@H](CCCNC(=N)N)NC(=O)CNC(=O)[C@H](Cc1ccc(O)cc1)NC(=O)CCCC[C@@H]1SC[C@@H]2NC(=O)N[C@@H]21)C(=O)N[C@@H](CO)C(=O)N[C@@H](CCC(=O)O)C(=O)N[C@@H](CCC(=O)O)C(=O)N[C@@H](CC(=O)O)C(=O)N[C@@H](CC(C)C)C(=O)N[C@@H](CC(C)C)C(=O)N[C@@H](CCCNC(=N)N)C(N)=O [Bio-TMyc, reference compound] (Biotin-YGRKKRRQRRRAEEQKLISEEDLLR-NH2) | 24 ± 3% | 16 ± 3% |  |  |  |  |  |  |
| CC[C@H](C)[C@H](NC(=O)[C@H](CCCCN)NC(=O)[C@H](Cc1c[nH]cn1)NC(=O)[C@H](Cc1ccccc1)NC(=O)[C@H](CC(C)C)NC(=O)[C@@H](NC(=O)[C@H](Cc1ccccc1)NC(=O)[C@H](CCCNC(=N)N)NC(=O)[C@H](CCCNC(=N)N)NC(=O)[C@H](CCCNC(=N)N)NC(=O)[C@H](CCC(N)=O)NC(=O)[C@H](CCCNC(=N)N)NC(=O)[C@H](CCCNC(=N)N)NC(=O)[C@H](CCCCN)NC(=O)[C@H](CCCCN)NC(=O)[C@H](CCCNC(=N)N)NC(=O)CNC(=O)[C@H](Cc1ccc(O)cc1)NC(=O)CCCC[C@@H]1SC[C@@H]2NC(=O)N[C@@H]21)C(C)C)C(=O)N1CCC[C@H]1C(=O)N[C@@H](CC(C)C)C(=O)N[C@@H](CC(=O)O)C(=O)NCC(N)=O [Bio-sTT1Ct] (Biotin-YGRKKRRQRRRFVLFHKIPLDG-NH2) | 50 ± 5% | 32 ± 3% | 45% | 39% |  |  |  |  |
| Ac-YGRKKRRQRRRPPFVLFHKIPLDG-NH2 [TT1Ct] |  |  |  |  | 59% | 31% | 37% | 46 ± 7% |
